Laboratory results published in patent US12365692B2, “6-hydroxy-8-oxatricyclo[3.2.1.02,4]octane-2-carboxamide derivatives for inducing chondrogenesis for treating joint damage” (NOVARTIS AG, priority 2018, dated 2025).

Tested on: ALP in NHAC (normal human articular chondrocytes)
Assay: Alkaline Phosphatase (ALP) activity assay: ALP staining and quantitation in NHACs (prevention of chondrocyte hypertrophy)
Type: cell-based
Settings: Chondrocyte, 288 h, human IL-1 beta 10 ng/mL, 12 days
Summary of the method: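 NHACs were plated with test compound in DMEM containing 10% FBS, and human IL-1 beta was added 5 h later at 10 ng/mL final. Cultures were kept 12 days at 37° C, 5% CO2. Cells were then fixed, ALP-stained with Fast Blue RR/Naphthol AS-MX, and hypertrophic cells were imaged and quantified by high-content imaging.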

Work on `COc1cc([C@@]23C[C@]2(C(=O)Nc2cc(C(F)(F)F)ccc2C#N)[C@H]2C[C@H](O)[C@@H]3O2)ccn1` (racemic) [Example 39, rac-(1R,2R,4S,5R,6S)—N-(2-cyano-5-(trifluoromethyl)phenyl)-6-hydroxy-4-(2-methoxypyridin-4-yl)-8-oxatricyclo[3.2.1.02,4]octane-2-carboxamide] yielded an IC50 (Fast Blue RR staining, high content imaging) of 81 nM and an Emax (read-out: ALP in NHAC (% Efficacy)) of 92%.
